pKi: −log10 of the molar value.
Assays:
[1] = biological target: T1, rat histamine H3 receptor (Rattus norvegicus, UniProt Q9QYN8); test: Rat H3 radioligand binding ([3H]-N-alpha-methylhistamine, CHO-A3 cell membranes, SPA); conditions: Table A, binding constant as letter class; read-out: Rat H3 Ki
T1 construct: encoding the entire 445-amino-acid rat histamine H3 receptor; expressed in transfected cells
Procedure: (§1) This was engineered into the pIRES-neo3 mammalian expression vector, which was stably transfected into the CHO-A3 cell line (Euroscreen, Belgium), followed by clonal selection by limiting dilution. Cells were harvested and cell pellets were frozen (−80° C.). Cell pellets were resuspended in 5 mM Tris-HCl, pH 7.5 with […] and a cocktail of protease inhibitors (Complete Protease Inhibition Tablets, Roche Diagnostics). Cells were disrupted using a polytron cell homogenizer and the suspension was centrifuged at 1000×g for 10 minutes at 4° C. The pellet was discarded and the supernatant centrifuged at 40,000×g for 30 min at 4° C. This membrane pellet was washed in membrane buffer containing 50 mM Tris-HCl, pH 7.5 with 0.6 mM EDTA, 5 mM MgCl2 and protease inhibitors, recentrifuged as above and the final pellet resuspended in membrane buffer plus 250 mM sucrose and frozen at −80° C.
(§2) Membranes were resuspended in 50 mM Tris HCl (pH 7.4), 5 mM MgCl2, 0.1% BSA. The membrane suspensions (10 μg protein per well) were incubated in a 96 well microtiter plate with [^3H]-N-alpha-methylhistamine (approximately 1 nM final concentration), test compounds at various concentrations (0.01 nM-30 μM) and scintillation proximity beads (Perkin Elmer, FlashBlueGPCR Scintillating Beads) in a final volume of 80 μl for 4 hours at room temperature, protected from light. Non-specific binding was determined in the presence of 10 μM clobenpropit. Radioligand bound to receptor, and therefore in proximity to the scintillation beads, was measured using a MicroBeta scintillation counter.

human H3 receptor = biological target: T2, human H3 receptor (Homo sapiens, UniProt Q9Y5N1); test: Human H3 radioligand binding ([3H]-N-alpha-methylhistamine, CHO cell membranes, SPA); conditions: Table A, binding constant as letter class
T2 construct: expressed in transfected cells
Procedure: as §1, with “Cell” for “This was engineered into the pIRES-neo3 mammalian expression vector, which was stably transfected into the CHO-A3 cell line (Euroscreen, Belgium), followed by clonal selection by limiting dilution. Cells were harvested and cell pellets were frozen (−80° C.). Cell”
as §2

T2 sequence (Q9Y5N1 whole entry): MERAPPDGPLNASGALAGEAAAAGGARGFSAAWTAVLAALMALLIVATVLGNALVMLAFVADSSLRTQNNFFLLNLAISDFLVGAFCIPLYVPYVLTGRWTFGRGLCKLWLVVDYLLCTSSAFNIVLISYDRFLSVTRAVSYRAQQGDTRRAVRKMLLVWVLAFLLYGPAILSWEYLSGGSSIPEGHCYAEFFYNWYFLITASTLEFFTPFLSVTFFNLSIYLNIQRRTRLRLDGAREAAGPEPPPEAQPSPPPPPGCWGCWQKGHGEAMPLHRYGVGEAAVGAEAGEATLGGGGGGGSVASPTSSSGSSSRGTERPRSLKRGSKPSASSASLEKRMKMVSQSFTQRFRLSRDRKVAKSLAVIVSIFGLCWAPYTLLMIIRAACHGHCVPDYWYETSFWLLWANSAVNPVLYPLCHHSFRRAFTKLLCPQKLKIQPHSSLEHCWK
T1 sequence (Q9QYN8 whole entry): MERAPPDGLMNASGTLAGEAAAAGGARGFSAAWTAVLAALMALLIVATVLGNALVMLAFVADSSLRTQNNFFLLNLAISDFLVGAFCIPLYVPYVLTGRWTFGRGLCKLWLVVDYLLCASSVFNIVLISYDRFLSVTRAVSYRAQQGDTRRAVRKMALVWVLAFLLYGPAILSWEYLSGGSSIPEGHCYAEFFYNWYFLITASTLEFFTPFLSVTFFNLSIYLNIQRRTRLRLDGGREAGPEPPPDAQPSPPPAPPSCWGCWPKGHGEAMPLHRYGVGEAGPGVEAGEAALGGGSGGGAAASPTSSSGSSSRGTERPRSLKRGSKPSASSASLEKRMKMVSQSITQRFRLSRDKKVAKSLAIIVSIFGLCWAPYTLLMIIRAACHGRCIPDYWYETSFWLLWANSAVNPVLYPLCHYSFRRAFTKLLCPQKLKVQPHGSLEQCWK

Row | Structure (SMILES) | pKi [1] | pKi (human H3 receptor)
1 | C[C@@H]1CCCN1CCCOc1ccc(-n2ncccc2=O)cc1 [Example 21, 2-{4-[3-((R)-2-Methyl-pyrrolidin-1-yl)-propoxy]-phenyl}-2H-pyridazin-3-one] | 6.00 to 6.30 | 7.00 to 10.00
2 | CC(C)n1nc(-c2ccc(OCCCN3CCC[C@H]3C)cc2)c2sccc2c1=O [Example 22, 5-Isopropyl-7-{4-[3-((R)-2-methyl-pyrrolidin-1-yl)-propoxy]-phenyl}-5H-thieno[2,3-d]pyridazin-4-one] | 7.00 to 10.00 | 7.00 to 10.00
3 | CC1CCC(C)N1CCCOc1ccc(-c2nn(C(C)C)c(=O)c3ccsc23)cc1 (centres unmarked) [Example 23, 7-{4-[3-(2,5-Dimethyl-pyrrolidin-1-yl)-propoxy]-phenyl}-5-isopropyl-5H-thieno[2,3-d]pyridazin-4-one] | 6.30 to 7.00 | 7.00 to 10.00
4 | CC(C)n1nc(-c2ccc(OCCCN3CCCCC3)cc2)c2sccc2c1=O [Example 24, 5-Isopropyl-7-[4-(3-piperidin-1-yl-propoxy)-phenyl]-5H-thieno[2,3-d]pyridazin-4-one] | 7.00 to 10.00 | 7.00 to 10.00
5 | CC(C)n1nc(-c2ccc(OCCCN3CCCC(C)(C)C3)cc2)c2sccc2c1=O [Example 25, 7-{4-[3-(3,3-Dimethyl-piperidin-1-yl)-propoxy]-phenyl}-5-isopropyl-5H-thieno[2,3-d]pyridazin-4-one] | < 6.00 | 6.30 to 7.00
6 | COC[C@@H]1CCCN1CCCOc1ccc(-c2nn(C(C)C)c(=O)c3ccsc23)cc1 [Example 26, 5-Isopropyl-7-{4-[3-((S)-2-methoxymethyl-pyrrolidin-1-yl)propoxy]-phenyl}-5H-thieno[2,3-d]pyridazin-4-one] | < 6.00 | 7.00 to 10.00
7 | COC[C@H]1CCCN1CCCOc1ccc(-c2nn(C(C)C)c(=O)c3ccsc23)cc1 [Example 27, 5-Isopropyl-7-{4-[3-((R)-2-methoxymethyl-pyrrolidin-1-yl)-propoxy]-phenyl}-5H-thieno[2,3-d]pyridazin-4-one] | < 6.00 | < 6.00
8 | CCN(CC)CCCOc1ccc(-c2nn(C(C)C)c(=O)c3ccsc23)cc1 [Example 28, 7-[4-(3-Diethylamino-propoxy)-phenyl]-5-isopropyl-5H-thieno[2,3-d]pyridazin-4-one] | 6.30 to 7.00 | 7.00 to 10.00
9 | CC(C)n1nc(-c2ccc(OCCCN3CCCC3)cc2)c2sccc2c1=O [Example 29, 5-Isopropyl-7-[4-(3-pyrrolidin-1-yl-propoxy)-phenyl]-5H-thieno[2,3-d]-pyridazin-4-one] | 7.00 to 10.00 | 7.00 to 10.00
10 | CC(C)n1nc(-c2ccc(OCCCN3CCC(N4CCCC4)CC3)cc2)c2sccc2c1=O [Example 30, 5-Isopropyl-7-{4-[3-(4-pyrrolidin-1-yl-piperidin-1-yl)-propoxy]-phenyl}-5H-thieno[2,3-d]pyridazin-4-one] | 6.00 to 6.30 | 7.00 to 10.00
11 | CC(C)n1nc(-c2ccc(OCCCN3[C@H](C)CC[C@H]3C)cc2)c2sccc2c1=O [Example 31, 7-{4-[3-((2R,5R)-2,5-Dimethyl-pyrrolidin-1-yl)-propoxy]-phenyl}-5-isopropyl-5H-thieno[2,3-d]pyridazin-4-one] | 6.30 to 7.00 | 7.00 to 10.00
12 | CCCn1nc(-c2ccc(OCCCN3CCC[C@H]3C)cc2)c2sccc2c1=O [Example 32, 7-{4-[3-((R)-2-Methyl-pyrrolidin-1-yl)-propoxy]phenyl}-5-propyl-5H-thieno[2,3-d]pyridazin-4-one] | 7.00 to 10.00 | 7.00 to 10.00
13 | CCCn1nc(-c2ccc(OCCCN3[C@H](C)CC[C@H]3C)cc2)c2sccc2c1=O [Example 33, 7-{4-[3-((2R,5R)-2,5-Dimethyl-pyrrolidin-1-yl)-propoxy]-phenyl)-5-propyl-5H-thieno[2,3-d]pyridazin-4-one] | 6.30 to 7.00 | 7.00 to 10.00
14 | CCCn1nc(-c2ccc(OCCCN3CCC(C)CC3)cc2)c2sccc2c1=O [Example 34, 7-{4-[3-(4-Methyl-piperidin-1-yl)-propoxy]-phenyl}-5-propyl-5H-thieno[2,3-d]pyridazin-4-one] | 7.00 to 10.00 | 7.00 to 10.00
15 | CCCn1nc(-c2ccc(OCCCN3CCC(N(C)C)CC3)cc2)c2sccc2c1=O [Example 35, 7-{4-[3-(4-Dimethylamino-piperidin-1-yl)-propoxy]-phenyl}-5-propyl-5H-thieno[2,3-d]pyridazin-4-one] | 6.30 to 7.00 | 6.30 to 7.00
16 | CCCn1nc(-c2ccc(OCCCN3CCC[C@H]3CN3CCCC3)cc2)c2sccc2c1=O [Example 36, 5-Propyl-7-{4-[3-((S)-2-pyrrolidin-1-ylmethyl-pyrrolidin-1-yl)-propoxy]-phenyl}-5H-thieno[2,3-d]pyridazin-4-one] | < 6.00 | 6.30 to 7.00

Row | Structure (SMILES) | pKi [1] | pKi (human H3 receptor)
17 | O=c1c2ccsc2c(-c2ccc(OCCCN3CCCCC3)cc2)nn1Cc1ccc(Cl)cc1 [Example 37, 5-(4-Chloro-benzyl)-7-[4-(3-piperidin-1-yl-propoxy)-phenyl]-5H-thieno[2,3-d]pyridazin-4-one] | 6.30 to 7.00 | 7.00 to 10.00
18 | C[C@@H]1CCCN1CCCOc1ccc(-c2nn(Cc3ccc(Cl)cc3)c(=O)c3ccsc23)cc1 [Example 38, 5-(4-Chloro-benzyl)-7-{4-[3-((R)-2-methyl-pyrrolidin-1-yl)-propoxy]-phenyl}-5H-thieno[2,3-d]pyridazin-4-one] | 7.00 to 10.00 | 7.00 to 10.00
19 | Cc1cc(-c2ccc(OCCCN3CCCCC3)cc2)nn(C)c1=O [Example 39, 2,4-Dimethyl-6-[4-(3-piperidin-1-yl-propoxy)-phenyl]-2H-pyridazin-3-one] | 7.00 to 10.00 | 7.00 to 10.00
20 | Cc1cc(-c2ccc(OCCCN3CCC[C@H]3C)cc2)nn(C)c1=O [Example 40, 2,4-Dimethyl-6-{4-[3-((R)-2-methyl-pyrrolidin-1-yl)-propoxy]-phenyl}-2H-pyridazin-3-one] | 7.00 to 10.00 | 7.00 to 10.00
21 | Cc1cc(-c2ccc(OCCCN3CCC[C@H]3C)cc2)nn(C(C)C)c1=O [Example 41, 2-Isopropyl-4-methyl-6-{4-[3-((R)-2-methyl-pyrrolidin-1-yl)-propoxy]-phenyl}-2H-pyridazin-3-one] | 7.00 to 10.00 | 7.00 to 10.00
22 | Cc1cc(-c2ccc(OCCCN3CCCCC3)cc2)nn(C(C)C)c1=O [Example 42, 2-Isopropyl-4-methyl-6-[4-(3-piperidin-1-yl-propoxy)-phenyl]-2H-pyridazin-3-one] | 6.30 to 7.00 | 6.30 to 7.00
23 | Cc1cc(-c2ccc(OCCCN3CCC[C@H]3C)cc2)nn(Cc2ccccc2)c1=O [Example 43, 2-Benzyl-4-methyl-6-{4-[3-((R)-2-methyl-pyrrolidin-1-yl)-propoxy]-phenyl}-2H-pyridazin-3-one] | 7.00 to 10.00 | 7.00 to 10.00
24 | Cc1cc(-c2ccc(OCCCN3CCCCC3)cc2)nn(Cc2ccccc2)c1=O [Example 44, 2-Benzyl-4-methyl-6-[4-(3-piperidin-1-yl-propoxy)-phenyl]-2H-pyridazin-3-one] | 6.30 to 7.00 | 7.00 to 10.00
25 | C[C@@H]1CCCN1CCCOc1ccc(-c2cc(Cc3ccccc3)c(=O)n(C)n2)cc1 [Example 45, 4-Benzyl-2-methyl-6-{4-[3-((R)-2-methyl-pyrrolidin-1-yl)-propoxy]-phenyl}-2H-pyridazin-3-one] | 7.00 to 10.00 | 7.00 to 10.00
26 | Cn1nc(-c2ccc(OCCCN3CCCCC3)cc2)cc(Cc2ccccc2)c1=O [Example 46, 4-Benzyl-2-methyl-6-[4-(3-piperidin-1-yl-propoxy)-phenyl]-2H-pyridazin-3-one] | 6.30 to 7.00 | 7.00 to 10.00
27 | C[C@@H]1CCCN1CCCOc1ccc(-c2nn(C)c(=O)cc2-c2ccccc2)cc1 [Example 47, 2-Methyl-6-{4-[3-((R)-2-methyl-pyrrolidin-1-yl)-propoxy]-phenyl}-5-phenyl-2H-pyridazin-3-one] | 7.00 to 10.00 | 7.00 to 10.00
28 | Cn1nc(-c2ccc(OCCCN3CCCCC3)cc2)c(-c2ccccc2)cc1=O [Example 48, 2-Methyl-5-phenyl-6-[4-(3-piperidin-1-yl-propoxy)-phenyl]-2H-pyridazin-3-one] | 7.00 to 10.00 | 7.00 to 10.00
29 | C[C@@H]1CCCN1CCCOc1ccc(-c2nn(C)c(=O)c3ccccc23)cc1 [Example 49, 2-Methyl-4-{4-[3-((R)-2-methyl-pyrrolidin-1-yl)-propoxy]-phenyl}-2H-phthalazin-1-one] | 7.00 to 10.00 | 7.00 to 10.00
30 | Cn1nc(-c2ccc(OCCCN3CCCCC3)cc2)c2ccccc2c1=O [Example 50, 2-Methyl-4-[4-(3-piperidin-1-yl-propoxy)-phenyl]-2H-phthalazin-1-one] | 7.00 to 10.00 | 7.00 to 10.00
31 | Cn1nc(-c2ccc(OCCN3CCCCC3)cc2)c2ccccc2c1=O [Example 51, 2-Methyl-4-[4-(2-piperidin-1-yl-ethoxy)-phenyl]-2H-phthalazin-1-one] | < 6.00 | 7.00 to 10.00
